Measured values: patent US9732119B2, “Immunomodulators” (BRISTOL-MYERS SQUIBB COMPANY, priority 2014, dated 2017)
Positions of bridges follow the written chain, without caps; N, C: chain ends. Non-standard residues stand in square brackets, D forms with d. Residues, ends and D or L forms follow the SMILES beside them. Trp(1-CH2COOH) = N[C@@H](Cc1cn(CC(=O)O)c2ccccc12)C(=O)O; Phe(4-F) = N[C@@H](Cc1ccc(F)cc1)C(=O)O; Hyp = O=C(O)[C@@H]1C[C@@H](O)CN1; Aad = N[C@@H](CCCC(=O)O)C(=O)O; NMeNle = CCCC[C@H](NC)C(=O)O; dOrn = NCCC[C@@H](N)C(=O)O; Pip = O=C(O)[C@@H]1CCCCN1; NMeA = CN[C@@H](C)C(=O)O; Orn = NCCC[C@H](N)C(=O)O; Dab = NCC[C@H](N)C(=O)O; Dap = NC[C@H](N)C(=O)O; Ava = NCCCCC(=O)O

target: T1, PD-1-Ig binding to PD-L1-TVMV-His (PD-L1-His) (Homo sapiens, UniProt Q9NZQ7); experiment: PD-1/PD-L1 Homogenous Time-Resolved Fluorescence (HTRF) binding assay; conditions: PD-1-Ig (20 nM) / PD-L1-His (10 nM); numeric values
T1 construct: hPDL1(19-239)-TVMV-His; made in house; host or cells: HEK293T cells
T1 sequence (Q9NZQ7 with tags, fused parts or gaps): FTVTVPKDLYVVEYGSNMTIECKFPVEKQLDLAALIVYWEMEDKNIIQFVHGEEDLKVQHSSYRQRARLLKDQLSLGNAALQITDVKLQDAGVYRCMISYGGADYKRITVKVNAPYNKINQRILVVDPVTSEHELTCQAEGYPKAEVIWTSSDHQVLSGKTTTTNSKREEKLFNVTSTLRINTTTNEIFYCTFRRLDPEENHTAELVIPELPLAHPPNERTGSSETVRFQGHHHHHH
Procedure, shortened: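 HTRF competition: compound pre-incubated 15 min with PD-L1-His (10 nM final), then PD-1-Ig (20 nM final) added for 15 min in dPBS, 0.1% BSA, 0.05% Tween-20. Detection with Eu-cryptate anti-Ig (1 nM) and APC anti-His (20 nM) antibodies.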

| IC50 | Compound |
| --- | --- |
| 10 nM | CCCC[C@H]1C(=O)N(C)[C@@H](CCCC)C(=O)N[C@@H](CC(C)C)C(=O)N[C@H](C(N)=O)CNCC(=O)N[C@@H](Cc2ccc(F)cc2)C(=O)N2CCCC[C@H]2C(=O)N[C@@H](CC(N)=O)C(=O)N2CCC[C@H]2C(=O)N[C@@H](Cc2c[nH]cn2)C(=O)N[C@@H](CCC(=O)O)C(=O)N2C[C@H](O)C[C@H]2C(=O)N[C@@H](Cc2c[nH]c3ccccc23)C(=O)N[C@@H](C)C(=O)N[C@@H](Cc2cn(CC(=O)O)c3ccccc23)C(=O)N1C [Example 9052] |
| 12 nM | CCCC[C@H]1C(=O)N(C)[C@@H](CCCC)C(=O)N[C@@H](CC(C)C)C(=O)NCCC[C@@H](N)C(=O)N[C@@H](Cc2ccc(F)cc2)C(=O)N2CCCC[C@H]2C(=O)N[C@@H](CC(N)=O)C(=O)N2CCC[C@H]2C(=O)N[C@@H](CN)C(=O)N[C@@H](CCC(=O)O)C(=O)N2C[C@H](O)C[C@H]2C(=O)N[C@@H](Cc2c[nH]c3ccccc23)C(=O)N[C@@H](CCN)C(=O)N[C@@H](Cc2cn(CC(=O)O)c3ccccc23)C(=O)N1C [Example 10570] (H-[dOrn][Phe(4-F)][Pip]NP[Dap]E[Hyp]W[Dab][Trp(1-CH2COOH)][NMeNle][NMeNle]L; lactam 1-C) |
| 5 nM | CCCC[C@H]1C(=O)N(C)[C@@H](CCCC)C(=O)N[C@@H](CC(C)C)C(=O)N[C@H](C(=O)NCC(N)=O)CNCC(=O)N[C@@H](Cc2ccc(O)cc2)C(=O)N(C)[C@@H](C)C(=O)N[C@@H](CC(N)=O)C(=O)N2CCC[C@H]2C(=O)N[C@@H](CCC(N)=O)C(=O)N[C@@H](CCC(=O)O)C(=O)N2C[C@H](O)C[C@H]2C(=O)N[C@@H](Cc2c[nH]c3ccccc23)C(=O)N[C@@H](CC(N)=O)C(=O)N[C@@H](Cc2cn(CC(=O)O)c3ccccc23)C(=O)N1C [Example 9007] |

same assay, conditions: PD-1-Ig (20 nM) / PD-L1-His (10 nM); range classes

| IC50 | Compound |
| --- | --- |
| 10 to 99 nM | CCCC[C@H]1C(=O)N(C)[C@@H](CCCC)C(=O)N[C@@H](CC(C)C)C(=O)N[C@H](C(N)=O)CCCC(=O)N[C@@H](Cc2ccc(O)cc2)C(=O)N2CCCC[C@H]2C(=O)N[C@@H](CC(N)=O)C(=O)N2CCC[C@H]2C(=O)N[C@@H](CN)C(=O)N[C@@H](CCC(=O)O)C(=O)N2C[C@H](O)C[C@H]2C(=O)N[C@@H](Cc2c[nH]c3ccccc23)C(=O)N[C@@H](CCN)C(=O)N[C@@H](Cc2cn(CC(=O)O)c3ccccc23)C(=O)N1C [Example 10520] (Y[Pip]NP[Dap]E[Hyp]W[Dab][Trp(1-CH2COOH)][NMeNle][NMeNle]L[Aad]-NH2; lactam N-14) |
| 100 to 10000 nM | CCCC[C@H]1C(=O)N(C)[C@@H](CCCC)C(=O)N[C@@H](CC(C)C)C(=O)N[C@H](C(=O)NCC(N)=O)CCCNCC(=O)N[C@@H](Cc2ccc(O)cc2)C(=O)N(C)[C@@H](C)C(=O)N[C@@H](CC(N)=O)C(=O)N2CCC[C@H]2C(=O)N[C@@H](Cc2cnc[nH]2)C(=O)N[C@@H](CC(C)C)C(=O)N2C[C@H](O)C[C@H]2C(=O)N[C@@H](Cc2c[nH]c3ccccc23)C(=O)NCC(=O)N[C@@H](Cc2c[nH]c3ccccc23)C(=O)N1C [Example 10028] |
| 10 to 99 nM | CCCC[C@H]1C(=O)N(C)[C@@H](CCCC)C(=O)N[C@@H](CC(C)C)C(=O)N[C@H](C(=O)NCC(N)=O)CNCC(=O)N[C@@H](Cc2ccc(F)cc2)C(=O)N(C)[C@@H](C)C(=O)N[C@@H](CC(N)=O)C(=O)N2CCC[C@H]2C(=O)N[C@@H](CCC(N)=O)C(=O)N[C@@H](CCC(=O)O)C(=O)N2C[C@H](O)C[C@H]2C(=O)N[C@@H](Cc2c[nH]c3ccccc23)C(=O)N[C@@H](CC(N)=O)C(=O)N[C@@H](Cc2cn(CC(=O)O)c3ccccc23)C(=O)N1C [Example 9011] |
| 1 to 9.9 nM | CCCC[C@H]1C(=O)N(C)[C@@H](CCCC)C(=O)N[C@@H](CC(C)C)C(=O)N[C@H](C(=O)NCC(N)=O)CNCC(=O)N[C@@H](Cc2ccc(F)cc2)C(=O)N(C)[C@@H](C)C(=O)N[C@@H](CC(N)=O)C(=O)N2CCC[C@H]2C(=O)N[C@@H](CCC(N)=O)C(=O)N[C@@H](CC(C)C)C(=O)N2C[C@H](O)C[C@H]2C(=O)N[C@@H](Cc2c[nH]c3ccccc23)C(=O)N[C@@H](CC(N)=O)C(=O)N[C@@H](Cc2cn(CC(=O)O)c3ccccc23)C(=O)N1C [Example 9009] |
| 100 to 10000 nM | CCCC[C@H]1C(=O)N(C)[C@@H](CCCC)C(=O)N[C@@H](CCC(=O)O)C(=O)N[C@H](C(=O)NCC(N)=O)CCNCC(=O)N[C@@H](Cc2ccc(O)cc2)C(=O)N(C)[C@@H](C)C(=O)N[C@@H](CC(=O)O)C(=O)N2CCC[C@H]2C(=O)N[C@@H](Cc2cnc[nH]2)C(=O)N[C@@H](CCC(N)=O)C(=O)N2C[C@H](O)C[C@H]2C(=O)N[C@@H](Cc2c[nH]c3ccccc23)C(=O)N[C@@H](CO)C(=O)N[C@@H](Cc2c[nH]c3ccccc23)C(=O)N1C [Example 10023] |
| 1 to 9.9 nM | CCCC[C@H]1C(=O)N(C)[C@@H](CCCC)C(=O)N[C@@H](C)C(=O)N[C@H](C(=O)NCC(N)=O)CCCNCC(=O)N[C@@H](Cc2ccc(O)cc2)C(=O)N(C)[C@@H](C)C(=O)N[C@@H](CC(=O)O)C(=O)N2CCC[C@H]2C(=O)N[C@@H](Cc2cnc[nH]2)C(=O)N[C@@H](CCC(N)=O)C(=O)N2C[C@H](O)C[C@H]2C(=O)N[C@@H](Cc2c[nH]c3ccccc23)C(=O)N[C@@H](CO)C(=O)N[C@@H](Cc2cn(CC(=O)O)c3ccccc23)C(=O)N1C [Example 10016] |
| 1 to 9.9 nM | CCCC[C@H]1C(=O)N(C)[C@@H](CCCC)C(=O)N[C@@H](CC(C)C)C(=O)NCCCCC(=O)N[C@@H](Cc2ccc(O)cc2)C(=O)N(C)[C@@H](C)C(=O)N[C@@H](CC(N)=O)C(=O)N2CCC[C@H]2C(=O)N[C@@H](CN)C(=O)N[C@@H](CCC(=O)O)C(=O)N2C[C@H](O)C[C@H]2C(=O)N[C@@H](Cc2c[nH]c3ccccc23)C(=O)N[C@@H](CCN)C(=O)N[C@@H](Cc2cn(CC(=O)O)c3ccccc23)C(=O)N1C [Example 10506] (cyclo([Ava]Y[NMeA]NP[Dap]E[Hyp]W[Dab][Trp(1-CH2COOH)][NMeNle][NMeNle]L)) |
| 1 to 9.9 nM | CCCC[C@H]1C(=O)N(C)[C@@H](CCCC)C(=O)N[C@@H](CC(C)C)C(=O)N[C@H](C(=O)NCC(N)=O)CNCC(=O)N[C@@H](Cc2ccc(O)cc2)C(=O)N(C)[C@@H](C)C(=O)N[C@@H](CC(N)=O)C(=O)N2CCC[C@H]2C(=O)N[C@@H](Cc2cnc[nH]2)C(=O)N[C@@H](CCC(N)=O)C(=O)N2C[C@H](O)C[C@H]2C(=O)N[C@@H](Cc2c[nH]c3ccccc23)C(=O)N[C@@H](CO)C(=O)N[C@@H](Cc2cn(CC(=O)O)c3ccccc23)C(=O)N1C [Example 10008] |
| 1 to 9.9 nM | CCCC[C@H]1C(=O)N(C)[C@@H](CCCC)C(=O)N[C@@H](CC(C)C)C(=O)N[C@H](C(N)=O)CNCC(=O)N[C@@H](Cc2ccc(O)cc2)C(=O)N2CCCC[C@H]2C(=O)N[C@@H](CC(N)=O)C(=O)N2CCC[C@H]2C(=O)N[C@@H](Cc2c[nH]cn2)C(=O)N[C@@H](CCC(N)=O)C(=O)N2C[C@H](O)C[C@H]2C(=O)N[C@@H](Cc2c[nH]c3ccccc23)C(=O)N[C@@H](C)C(=O)N[C@@H](Cc2cn(CC(=O)O)c3ccccc23)C(=O)N1C [Example 9051] |
| 1 to 9.9 nM | CCCC[C@H]1C(=O)N(C)[C@@H](CCCC)C(=O)N[C@@H](CC(C)C)C(=O)N[C@H](C(N)=O)CNCC(=O)N[C@@H](Cc2ccc(F)cc2)C(=O)N2CCCC[C@H]2C(=O)N[C@@H](CC(N)=O)C(=O)N2CCCC2C(=O)N[C@@H](Cc2c[nH]cn2)C(=O)N[C@@H](CCC(N)=O)C(=O)N2C[C@H](O)C[C@H]2C(=O)N[C@@H](Cc2c[nH]c3ccccc23)C(=O)N[C@@H](C)C(=O)N[C@@H](Cc2cn(CC(=O)O)c3ccccc23)C(=O)N1C (some centres unmarked) [Example 9053] |
| 1 to 9.9 nM | CCCC[C@H]1C(=O)N(C)[C@@H](CCCC)C(=O)N[C@@H](CC(C)C)C(=O)N[C@H](C(N)=O)CNCC(=O)N[C@@H](Cc2ccc(O)cc2)C(=O)N2CCCC[C@H]2C(=O)N[C@@H](CC(N)=O)C(=O)N2CCC[C@H]2C(=O)N[C@@H](CCC(N)=O)C(=O)N[C@@H](CCC(=O)O)C(=O)N2C[C@H](O)C[C@H]2C(=O)N[C@@H](Cc2c[nH]c3ccccc23)C(=O)N[C@@H](CC(N)=O)C(=O)N[C@@H](Cc2cn(CC(=O)O)c3ccccc23)C(=O)N1C [Example 9028] |
| 1 to 9.9 nM | CCCC[C@H]1C(=O)N(C)[C@@H](CCCC)C(=O)N[C@@H](CC(C)C)C(=O)N[C@H](C(N)=O)CNCC(=O)N[C@@H](Cc2ccc(O)cc2)C(=O)N2CCCC[C@H]2C(=O)N[C@@H](CC(=O)O)C(=O)N2CCC[C@H]2C(=O)N[C@@H](CCC(N)=O)C(=O)N[C@@H](CCC(N)=O)C(=O)N2C[C@H](O)C[C@H]2C(=O)N[C@@H](Cc2c[nH]c3ccccc23)C(=O)N[C@@H](CC(N)=O)C(=O)N[C@@H](Cc2cn(CC(=O)O)c3ccccc23)C(=O)N1C [Example 9037] |
| 10 to 99 nM | CCCC[C@H]1C(=O)N(C)[C@@H](CCCC)C(=O)N[C@@H](CC(C)C)C(=O)NCCC[C@H](N)C(=O)N[C@@H](Cc2ccc(O)cc2)C(=O)N2CCCC[C@H]2C(=O)N[C@@H](CC(N)=O)C(=O)N2CCC[C@H]2C(=O)N[C@@H](CN)C(=O)N[C@@H](CCC(=O)O)C(=O)N2C[C@H](O)C[C@H]2C(=O)N[C@@H](Cc2c[nH]c3ccccc23)C(=O)N[C@@H](CCN)C(=O)N[C@@H](Cc2cn(CC(=O)O)c3ccccc23)C(=O)N1C [Example 10549] (H-[Orn]Y[Pip]NP[Dap]E[Hyp]W[Dab][Trp(1-CH2COOH)][NMeNle][NMeNle]L; lactam 1-C) |
| 10 to 99 nM | CCCC[C@H]1C(=O)N(C)[C@@H](CCCC)C(=O)N[C@@H](CCC(=O)O)C(=O)N[C@H](C(=O)NCC(N)=O)CNCC(=O)N[C@@H](Cc2ccc(O)cc2)C(=O)N(C)[C@@H](C)C(=O)N[C@@H](CC(N)=O)C(=O)N2CCC[C@H]2C(=O)N[C@@H](CCC(N)=O)C(=O)N[C@@H](CCC(N)=O)C(=O)N2C[C@H](O)C[C@H]2C(=O)N[C@@H](Cc2c[nH]c3ccccc23)C(=O)N[C@@H](CC(N)=O)C(=O)N[C@@H](Cc2cn(CC(=O)O)c3ccccc23)C(=O)N1C [Example 9021] |
